From patent US20220056043A1, “NITROGEN-CONTAINING FUSED CYCLIC COMPOUND, PREPARATION METHOD THEREFOR AND USE THEREOF” (SICHUAN KELUN-BIOTECH BIOPHARMACEUTICAL CO., LTD., priority 2019, published 2022) come the findings set out here.

A word on the inhibition: it is the percentage by which the read-out fell short of the control. A higher inhibition goes with strong suppression. In general, IC50 refers to the concentration that gives 50% inhibition.

The target in data set [1] is T1, hERG potassium channel (Homo sapiens, UniProt Q12809). The experiment in a line: in vitro.
T1 sequence (Q12809 whole entry): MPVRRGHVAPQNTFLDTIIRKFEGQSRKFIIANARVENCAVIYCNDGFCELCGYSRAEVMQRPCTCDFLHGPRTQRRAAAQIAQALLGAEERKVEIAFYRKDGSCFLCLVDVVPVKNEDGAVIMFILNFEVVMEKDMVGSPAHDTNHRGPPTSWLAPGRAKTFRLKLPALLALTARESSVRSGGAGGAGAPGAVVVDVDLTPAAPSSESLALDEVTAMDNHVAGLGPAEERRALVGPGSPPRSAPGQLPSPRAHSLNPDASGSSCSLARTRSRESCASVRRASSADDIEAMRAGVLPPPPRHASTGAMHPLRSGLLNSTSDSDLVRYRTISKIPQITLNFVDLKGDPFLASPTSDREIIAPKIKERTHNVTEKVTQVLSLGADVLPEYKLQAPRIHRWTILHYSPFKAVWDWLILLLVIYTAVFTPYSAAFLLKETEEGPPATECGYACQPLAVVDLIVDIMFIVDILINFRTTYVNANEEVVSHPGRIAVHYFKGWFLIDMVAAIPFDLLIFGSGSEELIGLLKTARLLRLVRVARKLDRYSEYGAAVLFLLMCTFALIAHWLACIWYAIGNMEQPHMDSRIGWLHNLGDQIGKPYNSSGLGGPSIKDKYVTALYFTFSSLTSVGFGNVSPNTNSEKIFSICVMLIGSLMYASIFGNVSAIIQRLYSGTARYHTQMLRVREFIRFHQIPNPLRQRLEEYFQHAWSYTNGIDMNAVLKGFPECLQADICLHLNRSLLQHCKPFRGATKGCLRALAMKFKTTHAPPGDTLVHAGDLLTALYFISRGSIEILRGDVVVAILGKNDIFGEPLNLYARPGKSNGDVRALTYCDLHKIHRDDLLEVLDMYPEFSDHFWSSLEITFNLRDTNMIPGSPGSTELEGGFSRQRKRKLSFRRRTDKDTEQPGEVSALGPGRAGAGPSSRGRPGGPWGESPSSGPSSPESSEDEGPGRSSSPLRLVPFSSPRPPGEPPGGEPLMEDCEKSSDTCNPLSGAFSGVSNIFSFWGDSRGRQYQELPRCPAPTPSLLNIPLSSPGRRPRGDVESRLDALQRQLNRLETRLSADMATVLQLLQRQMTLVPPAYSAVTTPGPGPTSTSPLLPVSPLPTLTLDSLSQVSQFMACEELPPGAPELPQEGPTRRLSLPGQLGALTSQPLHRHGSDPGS
For data set [2], the target named is T1, hERG potassium channel.
The target of data set [3] is T1, hERG potassium channel. The experiment in a line: cell-based.
A further data set addresses T2, CYP1A2 (Homo sapiens, UniProt P05177).
T2 construct: purchased
T2 sequence (P05177 1-516): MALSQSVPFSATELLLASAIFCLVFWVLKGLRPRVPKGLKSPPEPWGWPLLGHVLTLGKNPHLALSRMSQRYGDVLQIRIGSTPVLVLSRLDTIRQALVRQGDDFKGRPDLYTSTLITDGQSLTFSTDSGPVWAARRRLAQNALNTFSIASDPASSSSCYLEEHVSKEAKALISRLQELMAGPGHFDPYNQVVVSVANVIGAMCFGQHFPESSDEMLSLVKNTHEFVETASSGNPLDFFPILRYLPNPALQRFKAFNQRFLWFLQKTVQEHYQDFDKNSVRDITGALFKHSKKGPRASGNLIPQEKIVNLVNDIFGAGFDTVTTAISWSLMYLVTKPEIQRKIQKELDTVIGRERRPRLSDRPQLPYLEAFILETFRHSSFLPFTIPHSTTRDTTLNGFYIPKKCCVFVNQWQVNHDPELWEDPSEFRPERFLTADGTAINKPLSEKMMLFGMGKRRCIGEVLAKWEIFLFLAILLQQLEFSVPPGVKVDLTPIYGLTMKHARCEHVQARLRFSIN
The experiment in a line: CYP enzyme inhibition test, P450-Glo CYP1A2 Screening System. Conditions: for inhibitory effect on CYP1A2: conclusion in words. In kind it is in vitro ADME. The procedure: (§1) Experimental Example 6: CYP Enzyme Inhibition Test CYP450 is the most important enzyme system in drug metabolism. The enzymes involved in metabolism interact with drugs, and the most important ones are CYP1A2, CYP2D6 and CYP3A4. P450-Glo™ CYP1A2 Screening System, Vivid® CYP2D6 Cyan Screening Kit and Vivid® CYP3A4 Red Screening Kit were used in this test, and the inhibitory effects of the compounds on CYP1A2, CYP2D6 and CYP3A4 were determined according to the instructions of the kit.

A further data set concerns the target T3, CYP3A4 (Homo sapiens, UniProt P08684).
T3 construct: purchased
The experiment in a line: CYP enzyme inhibition test, Vivid CYP3A4 Red Screening Kit. In kind it is in vitro ADME. Conditions: for inhibitory effect on CYP3A4: conclusion in words. The protocol: as §1

T3 sequence (P08684 whole entry): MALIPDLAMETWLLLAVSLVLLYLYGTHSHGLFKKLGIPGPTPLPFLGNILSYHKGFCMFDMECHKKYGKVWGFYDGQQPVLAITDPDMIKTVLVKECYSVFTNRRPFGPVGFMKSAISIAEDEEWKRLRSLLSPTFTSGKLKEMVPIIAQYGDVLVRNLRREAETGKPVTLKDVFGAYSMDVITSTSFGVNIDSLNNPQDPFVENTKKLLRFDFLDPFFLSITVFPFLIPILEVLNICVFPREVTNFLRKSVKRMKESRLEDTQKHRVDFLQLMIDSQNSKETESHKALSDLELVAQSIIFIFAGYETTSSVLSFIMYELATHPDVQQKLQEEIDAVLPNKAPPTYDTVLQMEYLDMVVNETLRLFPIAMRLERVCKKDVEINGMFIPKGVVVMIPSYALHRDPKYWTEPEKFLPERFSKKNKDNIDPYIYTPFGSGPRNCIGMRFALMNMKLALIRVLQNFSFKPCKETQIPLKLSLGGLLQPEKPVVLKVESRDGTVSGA

For the compound `Nc1cc(N[C@@H]2CC[C@@H](O)C2)c2sc(-c3ccn[nH]3)cc2n1` [Compound 30, (1R,3R)-3-((5-amino-2-(1H-pyrazol-5-yl)thieno[3,2-b]pyridin-7-yl)amino)cyclopentanol], on hERG potassium channel [1], the inhibition at 10 μM came out at 1.91 ± 1.4%. The “inhibitory effect on hERG” value against hERG potassium channel [2] is given as “no apparent inhibitory effect”. In addition, on hERG potassium channel [3], the IC50 is greater than 10 µM.
With `C[C@@H]1CN(CCNc2cc(N)nc3cc(-c4ccn[nH]4)sc23)C[C@@H](C)O1` [Compound 124, N^7-(2-((2R,6R)-2,6-dimethylmorpholino)ethyl)-2-(1H-pyrazol-5-yl)thieno[3,2-b]pyridine-5,7-diamine], at CYP1A2, the IC50 is greater than 10 µM and the “inhibitory effect on CYP1A2” value was “no apparent inhibitory effects”. On CYP3A4, the IC50 was greater than 10 µM and the “inhibitory effect on CYP3A4” value was “no apparent inhibitory effects”.
Take `C[C@@H](CCO)Nc1cc(N)nc2cc(-c3ccn[nH]3)sc12` [Compound 125, (S)-3-((5-amino-2-(1H-pyrazol-5-yl)thieno[3,2-b]pyridin-7-yl)amino)butanol]: on CYP1A2, the IC50 was greater than 10 µM and the “inhibitory effect on CYP1A2” value is “no apparent inhibitory effects”. Besides, at CYP3A4, the IC50 was greater than 10 µM and the “inhibitory effect on CYP3A4” value is given as “no apparent inhibitory effects”.
